Results published in patent publication US5399691A, “Substituted benzoylurea derivatives or their salts” (Ishihara Sangyo Kaisha Ltd., priority 1991, dated 1995).
In brackets after ≈: the same amount, converted by molar mass. Where a name gives a salt, the structure may show the parent alone. Read-outs that look alike come from different tables or passages of the source.

Assays:
[1] = test system: P-388 leukemia; assay: Antitumor activity against P-388 leukemia, increase life span (Test Example 1); format: in vivo, BDF1 mouse (murine); conditions: days 1, 5 and 9
Text: The compounds of the present invention are effective against experimental murine tumors such as P-388 leukemia, L-1210 leukemia, B-16 melanoma, M-5076 sarcoma, Colon 38, Colon 26 and Lewis lung carcinoma. On the other hand, certain in vivo test systems and protocols have been developed by National Cancer Institute for testing compounds to determine the effectiveness of test compounds as antineoplastic agents. These have been reported in "Cancer Chemotherapy Reports", Part III, Vol. 3, No. 2 (1972) written by Deran, Greenberg, MacDonald, Schumacher and Abott. P-388 leukemia is the most standard experimental murine tumor, and it is known that many of drugs effective against human tumor are also effective against this leukemia. Generally, the effectiveness of a drug for these experimental murine tumors is evaluated by the extended median survival time of a test mouse group to which a test drug is administered on the basis of the median survival time of a control mouse group to which no drug is administered. If the extended median survival time is at least 25-30% longer, the administered drug is determined to be effective.
1×10^6 of P-388 leukemia cells per mouse were intraperitoneally transplanted into BDF1 mouse. Each formulation was intraperitoneally or intravenously administered on the 1st, 5th and 9th days after the transplantation.
The increase life span of each group was determined by comparing the median survival time (days) of a test group to which a test drug is administered and the median survival time (days) of a control group to which physiological saline was administered at the same part as in the case of the test group. Among the tested drug formulations, the compounds of the present invention were formulated in accordance with the below-mentioned Formulation Example 1, and the comparative compounds as shown in Table 8 were formulated in accordance with the below-mentioned Formulation Example 2.
(Note) * Increase life span is calculated by the following equation:
Increase life span % (ILS)=(a/b×100)-100 a: Median survival days of test group of drug administration b: Median survival days of control group of physiological saline administration 0.125 part by weight of the above mentioned Compound No. 1 was dissolved in 5 parts by weight of N,N-dimethylacetamide and 5 parts by weight of polyoxyethylene sorbitan monooleate, and 90 parts by weight of physiological saline was added thereto to form a solution formulation in an agate mortar.
0.125 part by weight of Comparative Compound No. 1 was dissolved in 5 parts by weight of N,N-dimethylacetamide and 5 parts by weight of polyoxyethylene sorbitan monooleate, and 90 parts by weight of physiological saline was added thereto to form a suspension formulation in an agate mortar.

[2] = Solubility in water-soluble solvent by HPLC (Test Example 2); format: physicochemical
Experimental: About 2 mg of each of the compounds of the present invention shown in the following Table 7 was accurately weighed, and was completely dissolved in 2 ml of N,N-dimethylacetamide. The content was then transferred into a 10 ml-measuring flask, and its volume was made constant with acetonitrile. 3 ml of the resultant solution was placed in a 50 ml-measuring flask, and its volume was adjusted constant with acetonitrile to prepare a standard solution. Next, about 2 mg of each of the compounds of the present invention was weighed, and was placed in an agate mortar. Thereafter, 1.5 ml of a test liquid (water-soluble solvent) was added thereto, and the content was mixed for 5 minutes. A suspension thus obtained, was transferred into a 1.5 ml-microtube, and was centrifuged at 15,000 r.p.m. for 10 minutes. The supernatant fluid was placed in a 1 ml-microtube, and was centrifuged again under the same conditions. 0.1 ml of the supernatant fluid thus obtained was diluted with 0.9 ml of acetonitrile to prepare a measuring liquid. The above standard solution and the measuring liquid were analyzed by high pressure liquid chromatography (HPLC), and their solubilities were measured by absolute calibration curve method.
Column: Nucleosil 5 C18, diameter=4.6 mm, length=250 mm
Mobile phase: acetonitrile/water/acetic acid=60/40/0.1
Detection: UV 265 nm, Column temperature: 40° C.,
Sensitivity: 0.005 AUFS or 0.16 AUFS,

[3] = Acute toxicity; format: in vivo; conditions: mouse, in vivo; BDF1 mice, intravenous, Formulation Example 1; read-out: acute toxicity value (LD 50)
Experimental: (§1) None of BDF1 mice were dead by intravenously administering each formulation of Compound Nos. 1 to 9, 20, 49 and 53 of the present invention prepared in accordance with Formulation Example 1 in an amount of 25 mg/kg mouse (on the basis of compound).
(§2) 0.125 part by weight of the above mentioned Compound No. 1 was dissolved in 5 parts by weight of N,N-dimethylacetamide and 5 parts by weight of polyoxyethylene sorbitan monooleate, and 90 parts by weight of physiological saline was added thereto to form a solution formulation in an agate mortar.

[4] = test system: BDF1 mice; assay: Acute toxicity; format: in vivo; conditions: intravenous, 25 mg/kg mouse, Formulation Example 1
Experimental: as §1, §2

[5] = Mus musculus, P388, intravenous
[6] = Mus musculus, P388, intravenous, 12.5 mg/kg
[7] = Mus musculus, P388, intravenous, 25 mg/kg
[8] = 10% peg 400 aqueous, organic solvent or mixture, 10% polyethylene glycol #400 aqueous solution, read-out: Solubility, test solution C
[9] = distilled water, water, read-out: Solubility, test solution A
[10] = physiological saline, read-out: Solubility, test solution B
[11] = Mus musculus, P388, ip, intraperitoneal
[12] = Mus musculus, P388, ip, intraperitoneal, 12.5 mg/kg
[13] = Mus musculus, P388, ip, intraperitoneal, 25 mg/kg

NCC(=O)Nc1ccccc1C(=O)NC(=O)Nc1ccc(Oc2ncc(Br)cn2)c(Cl)c1 [Compound No. 1, N-[4-(5-bromo-2-pyrimidinyloxy)-3-chlorophenyl]-N'-(2-glycylamino)benzoylurea hydrochloride]
ILS at 6.25 mg/kg [1, 5]: 12% | ILS at 12.5 mg/kg [1, 6]: 79% | ILS at 25 mg/kg [1, 7]: 219% | solubility [2, 8]: 2100 µg/mL | solubility [2, 9]: 1200 µg/mL | solubility [2, 10]: 50 µg/mL | LD50 [3]: ≥ 25 mg/kg

CN(C)CC(=O)Nc1ccccc1C(=O)NC(=O)Nc1ccc(Oc2ncc(Br)cn2)c(Cl)c1 [Compound No. 2, N-[4-(5-bromo-2-pyrimidinyloxy)-3-chlorophenyl]-N'-[2-(N,N-dimethylglycyl)amino]benzoylurea hydrochloride]
ILS at 6.25 mg/kg [1, 5]: 24% | ILS at 12.5 mg/kg [1, 6]: 51% | ILS at 25 mg/kg [1, 7]: 143% | solubility [2, 8]: > 4000 µg/mL | solubility [2, 9]: 2500 µg/mL | solubility [2, 10]: 550 µg/mL | LD50 [3]: ≥ 25 mg/kg

C[C@H](N)C(=O)Nc1ccccc1C(=O)NC(=O)Nc1ccc(Oc2ncc(Br)cn2)c(Cl)c1 [Compound No. 3]
ILS at 6.25 mg/kg [1, 5]: 10% | ILS at 12.5 mg/kg [1, 6]: 70% | ILS at 25 mg/kg [1, 7]: 134% | solubility [2, 8]: 3700 µg/mL (≈ 6.93 mM) | solubility [2, 9]: 2800 µg/mL (≈ 5.25 mM) | solubility [2, 10]: 320 µg/mL (≈ 0.6 mM) | LD50 [3]: ≥ 25 mg/kg

C[C@@H](N)C(=O)Nc1ccccc1C(=O)NC(=O)Nc1ccc(Oc2ncc(Br)cn2)c(Cl)c1 [Compound No. 4]
ILS at 12.5 mg/kg [1, 6]: 19% | ILS at 25 mg/kg [1, 7]: 95% | solubility [2, 8]: 2700 µg/mL (≈ 5.06 mM) | solubility [2, 9]: 2000 µg/mL (≈ 3.75 mM) | solubility [2, 10]: 140 µg/mL (≈ 0.262 mM) | LD50 [3]: ≥ 25 mg/kg

CSCC[C@H](N)C(=O)Nc1ccccc1C(=O)NC(=O)Nc1ccc(Oc2ncc(Br)cn2)c(Cl)c1 [Compound No. 5]
ILS at 12.5 mg/kg [1, 6]: 3% | ILS at 25 mg/kg [1, 7]: 152% | solubility [2, 8]: 2000 µg/mL (≈ 3.37 mM) | solubility [2, 9]: 1200 µg/mL (≈ 2.02 mM) | solubility [2, 10]: 30 µg/mL (≈ 0.0505 mM) | LD50 [3]: ≥ 25 mg/kg

Cc1cc(NC(=O)NC(=O)c2ccccc2NC(=O)CN)ccc1Oc1ncc(Br)cn1 [Compound No. 7, N-[4-(5-bromo-2-pyrimidinyloxy)-3-methylphenyl]-N'-(2-glycylamino)benzoylurea]
ILS at 6.25 mg/kg [1, 5]: 50% | ILS at 12.5 mg/kg [1, 6]: 105% | ILS at 25 mg/kg [1, 7]: 143% | solubility [2, 8]: 3900 µg/mL (≈ 7.81 mM) | solubility [2, 9]: > 2300 µg/mL | solubility [2, 10]: 380 µg/mL (≈ 0.761 mM) | LD50 [3]: ≥ 25 mg/kg

Nc1ccccc1C(=O)NC(=O)Nc1ccc(Oc2ncc(Br)cn2)c(Cl)c1 [compound 1, reference compound]
ILS at 6.25 mg/kg [1, 11]: 50% | ILS at 12.5 mg/kg [1, 12]: 107% | Increase life span (ILS %) ([1]; intraperitoneal, 25 mg/kg): Tox | solubility [2, 8]: < 0.05 µg/mL | solubility [2, 9]: < 0.05 µg/mL | solubility [2, 10]: 0.06 µg/mL (≈ 0.00013 mM)

Cc1cc(NC(=O)NC(=O)c2ccccc2N)ccc1Oc1ncc(Cl)cn1 [compound 2, reference compound]
ILS at 6.25 mg/kg [1, 11]: 34% | ILS at 12.5 mg/kg [1, 12]: 83% | ILS at 25 mg/kg [1, 13]: 148% | solubility [2, 9]: 0.8 µg/mL (≈ 0.00201 mM)

CCc1cc(NC(=O)NC(=O)c2ccccc2N)ccc1Oc1ncc(Br)cn1 [compound 3, reference compound]
ILS at 6.25 mg/kg [1, 11]: 26% | ILS at 12.5 mg/kg [1, 12]: 26% | ILS at 25 mg/kg [1, 13]: 99% | solubility [2, 9]: < 0.1 µg/mL

Nc1ccccc1C(=O)NC(=O)Nc1ccc(Oc2ncc(Cl)cn2)c(C(F)(F)F)c1 [compound 4, reference compound]
ILS at 6.25 mg/kg [1, 11]: 71% | Increase life span (ILS %) ([1]; intraperitoneal, 12.5 mg/kg): Tox | Increase life span (ILS %) ([1]; intraperitoneal, 25 mg/kg): Tox | solubility [2, 9]: 0.4 µg/mL (≈ 0.000885 mM)

NCC(=O)Nc1ccccc1C(=O)NC(=O)Nc1ccc(Oc2ncc(Cl)cn2)c(C(F)(F)F)c1 [compound 6]
ILS at 6.25 mg/kg [1, 5]: 60% | ILS at 12.5 mg/kg [1, 6]: 138% | solubility [2, 8]: 1900 µg/mL (≈ 3.73 mM) | solubility [2, 9]: 1400 µg/mL (≈ 2.75 mM) | solubility [2, 10]: 70 µg/mL (≈ 0.138 mM) | LD50 [3]: ≥ 25 mg/kg

NCC(=O)NCC(=O)Nc1ccccc1C(=O)NC(=O)Nc1ccc(Oc2ncc(Br)cn2)c(Cl)c1 [compound 8]
ILS at 12.5 mg/kg [1, 6]: 90% | ILS at 25 mg/kg [1, 7]: 243% | solubility [2, 8]: 2100 µg/mL (≈ 3.64 mM) | solubility [2, 9]: 1800 µg/mL (≈ 3.12 mM) | solubility [2, 10]: 70 µg/mL (≈ 0.121 mM) | LD50 [3]: ≥ 25 mg/kg

NCC(=O)Nc1ccccc1C(=O)NC(=O)Nc1ccc(Oc2ncc(Cl)cn2)c(Cl)c1 [compound 9]
ILS at 6.25 mg/kg [1, 5]: 19% | ILS at 12.5 mg/kg [1, 6]: 86% | ILS at 25 mg/kg [1, 7]: 152% | solubility [2, 8]: 1500 µg/mL (≈ 3.16 mM) | solubility [2, 9]: 1600 µg/mL (≈ 3.37 mM) | solubility [2, 10]: 160 µg/mL (≈ 0.337 mM) | LD50 [3]: ≥ 25 mg/kg

Cc1cc(NC(=O)NC(=O)c2ccccc2NC(=O)CN(C)C)ccc1Oc1ncc(Br)cn1 [compound 20, N-[4-(5-bromo-2-pyrimidinyloxy)-3-methylphenyl]-N'-[2-(N,N-dimethylglycyl)amino]benzoylurea]
ILS at 12.5 mg/kg [1, 6]: 36% | ILS at 25 mg/kg [1, 7]: 155% | solubility [2, 8]: 20000 µg/mL (≈ 37.9 mM) | solubility [2, 9]: 19000 µg/mL (≈ 36 mM) | solubility [2, 10]: 3000 µg/mL (≈ 5.69 mM) | LD50 [3]: ≥ 25 mg/kg | BDF1 mice dead [4]: None

Cc1cc(NC(=O)NC(=O)c2ccccc2NC(=O)[C@H](C)N)ccc1Oc1ncc(Br)cn1 [compound 49]
ILS at 6.25 mg/kg [1, 5]: 14% | ILS at 12.5 mg/kg [1, 6]: 76% | ILS at 25 mg/kg [1, 7]: 190% | solubility [2, 8]: 9800 µg/mL (≈ 19.1 mM) | solubility [2, 9]: 7600 µg/mL (≈ 14.8 mM) | solubility [2, 10]: 1800 µg/mL (≈ 3.51 mM) | LD50 [3]: ≥ 25 mg/kg | BDF1 mice dead [4]: None

CNCC(=O)Nc1ccccc1C(=O)NC(=O)Nc1ccc(Oc2ncc(Br)cn2)c(C)c1 [compound 53, N-[4-(5-bromo-2-pyrimidinyloxy)-3-methylphenyl]-N'-(2-sarcosylamino)benzoylurea]
ILS at 10 mg/kg ([1]; Mus musculus, P388, intravenous, 10 mg/kg (footnote d)): > 30% | ILS at 20 mg/kg ([1]; Mus musculus, P388, intravenous, 20 mg/kg (footnote c)): > 50% | solubility [2, 9]: 5000 µg/mL (≈ 9.74 mM) | solubility [2, 10]: 120 µg/mL (≈ 0.234 mM) | LD50 [3]: ≥ 25 mg/kg | BDF1 mice dead [4]: None
